Experimental data reported in publication PMC6014988, “Precision therapeutic targeting of human cancer cell motility” (Nature Communications, 2018).
Like-named read-outs stand apart in the source and are kept apart here.

What was measured:
442 kinases = test: KINOMEscan assay; assay type: binding; details: 10 µM; negatives include MKK4, p38 MAPK, RAF1
Procedure: Initial assays were performed with PC3 and PC3-M cells (PC3 cell data not shown). However, as these studies yielded similar findings, subsequent screening assays utilized only PC3-M cells. In designing chemical synthetic routes, priority was given to efficacy and toxicity parameters. Additional design features were also included in our chemical […]
toxicity parameters. These additional design features included removal of fragments that mediated genistein binding to the estrogen receptor (ER), as determined by ER-genistein 3D x-ray crystal structures (Protein Data Base IDs:1X7R and 1X7J, for crystal structures of ERα and ERβ with bound genistein, respectively). These features also included removal of chemical fragments that are considered to increase susceptibility to rapid metabolism, especially that by the cytochrome P450 (CYP) pathway. The final feature involved incorporation of chemical characteristics previously shown to be associated with effective drugs and which together generally impart more favorable pharmacologic properties, including those described by Lipinski […]
Supplementary Note 2. […] Three […]
different assays systems were employed.
Kinase assay system #1. The KINOMEscan™ assay (Ambit Biosciences). This assay evaluates 442 kinases, including 400 distinct parental kinases plus mutants known to alter activity or responsiveness. […]

[1] = Pharmacokinetics in CD1 mice, oral gavage and iv; assay type: in vivo, mouse
Procedure: (§1) For determination of pharmacokinetic (PK) parameters, KBU2046 was administered by either intravenous injection or oral gavage to groups of N = 3 CD1(ICR) mice at 0 (i.e., vehicle only), 25, or 100 mg/kg. Blood was collected into EDTA by terminal cardiac puncture before drug administration (i.e., baseline) and at 5, 10, 15, 30, 45, 60, 90, 120, 180, 240, 360, 480, 960, 1440 min after administration. In separate experiments, as described above, Balb/c athymic mice were dosed with KBU2046 incorporated into chow for 35 days, after which blood was collected by terminal cardiac puncture. Resultant plasma (~250 μl/mouse) was stored at −80 °C.
Plasma KBU2046 concentrations were measured in duplicate by liquid chromatography-tandem mass spectrometry after sample preparation by solid-phase extraction. Specifically, 0.1 mL of a sample, 10 μL of 0.1 μg/mL internal standard solution (3-(2-chlorophenyl)-(4H-1-benzopyran-4-one, a chloride analog of KBU2046), 3800 μL of water, and 10 μl of 85% phosphoric acid were added, vortexed, and stored at 4 °C for 2 h. After washing a 96-well Strata-X 33 µm polymeric reversed phase 30 mg/well solid-phase extraction plate (Phenomenex) with methanol and water, sample was applied, washed with 20% methanol in water, eluted with 70% acetonitrile/30% methanol, dried at 50 °C under N2, reconstituted with 100 μL of mobile phase, and 20 µL was analyzed on an API 3000 liquid chromatography-tandem mass spectrometry system (Applied Biosystems) with an Agilent 1100 series HPLC system (Agilent Technologies). Samples were eluted isocratically from a Synergi 4-μm MAX-RP 100 Å column (2.0 × 50 mm; Phenomenex) by a mobile phase consisting of 10 mM ammonium formate in water and methanol (30:70 [vol/vol]) at a flow rate of 0.20 mL/min. The tandem mass spectrometer was operated with its electrospray source in the positive ionization mode. The mass-to-charge ratios of the precursor-to-product ion reactions monitored were 243.5 → 125.1 for KBU2046 and 257.0 → 165.0 for the internal standard. The retention time of KBU2046 was ~2.7 min while that of the internal standard was ~2.3 min. The linear range for plasma KBU2046 standard curves was 0.1–25.0 ng/mL, with coefficients of variation of 10% or less throughout the entire concentration range. Fresh plasma standard curves were prepared in blank plasma and run on the day of analysis of plasma samples.
Plasma KBU2046 concentration vs. time relationships after both intravenous and oral drug administration were modeled simultaneously using the SAAM II software system (SAAM Institute), implemented on a WindowsTM-based PC (see PK modeling schema). Plasma concentrations were modeled with a three-compartment PK model using a naive pooled data approach. Oral drug absorption was characterized by a tanks-in-series delay element, to account for the non-instantaneous appearance of drug in the body. Simultaneous estimation of PK model parameters for both routes of administration permitted estimation of the bioavailability of the orally administered drug (F)[41]. The SAAM II objective function used was the extended least-squares maximum likelihood function using data weighted with the inverse of the model-based variance of the data at the observation times. Model misspecification was sought by visual inspection of the measured and predicted marker concentrations vs. time relationships (Fig. 7)[42].

[2] = Plasma KBU2046 concentration after dosing in chow; assay type: in vivo; details: Balb/c athymic, mouse, oral
Procedure: as §1
Plasma KBU2046 concentrations were measured in duplicate by liquid chromatography-tandem mass spectrometry after sample preparation by solid-phase extraction. […] The mass-to-charge ratios of the precursor-to-product ion reactions monitored were 243.5 → 125.1 for KBU2046 and 257.0 → 165.0 for the internal standard. […]

[3] = molecular target: T1, General transcription factor II-I (Homo sapiens, UniProt P78347); test: ProtoArray binding, General transcription factor II-I; details: 10 fold excess free KBU2046
T1 construct: purchased Invitrogen
Procedure: The ProtoArray® assay, using the Human Protein Microarray platform, was performed by Invitrogen. […]
(d) Protein array hybridization. KBU2046-biotin was hybridized to ProtoArray® Human Protein Microarray’s at 0.5 and 10 µM with and without 10 fold excess free KBU2046. We first sought proteins that met the following criteria, and did so at both 0.5 and 10 µM concentrations of KBU2046-biotin (in the absence of free KBU2046): Z-Score greater than 2.5, Z-Factor greater than 0.5, CI P-value less than 0.05, negative control value <2,000 (relative fluorescence units; RFUs), and a signal/negative control signal of >10 and >5 for 10 µM and 0.5 µM conditions, respectively. This yielded 3 proteins, shown in table, for an initial hit rate of 0.03%. We then required free KBU2046 to inhibit binding by >75%. […]
There were two additional notable findings from protein array studies. First, the positive control used in protein arrays was staurosporine. Staurosporine is similar to genistein in that both are small compound natural products that are broad spectrum kinase inhibitors. In contrast to the lack of binding by KBU2046-biotin, staurosporine bound to 214 proteins at levels that were >/= 10 fold above that of background. The vast majority of these proteins were kinases. Second, both HSP90β and CDC37 were present on the protein arrays, and were not bound by KBU2046-

[4] = combined fit of both doses by both routes

T1 sequence (P78347 whole entry): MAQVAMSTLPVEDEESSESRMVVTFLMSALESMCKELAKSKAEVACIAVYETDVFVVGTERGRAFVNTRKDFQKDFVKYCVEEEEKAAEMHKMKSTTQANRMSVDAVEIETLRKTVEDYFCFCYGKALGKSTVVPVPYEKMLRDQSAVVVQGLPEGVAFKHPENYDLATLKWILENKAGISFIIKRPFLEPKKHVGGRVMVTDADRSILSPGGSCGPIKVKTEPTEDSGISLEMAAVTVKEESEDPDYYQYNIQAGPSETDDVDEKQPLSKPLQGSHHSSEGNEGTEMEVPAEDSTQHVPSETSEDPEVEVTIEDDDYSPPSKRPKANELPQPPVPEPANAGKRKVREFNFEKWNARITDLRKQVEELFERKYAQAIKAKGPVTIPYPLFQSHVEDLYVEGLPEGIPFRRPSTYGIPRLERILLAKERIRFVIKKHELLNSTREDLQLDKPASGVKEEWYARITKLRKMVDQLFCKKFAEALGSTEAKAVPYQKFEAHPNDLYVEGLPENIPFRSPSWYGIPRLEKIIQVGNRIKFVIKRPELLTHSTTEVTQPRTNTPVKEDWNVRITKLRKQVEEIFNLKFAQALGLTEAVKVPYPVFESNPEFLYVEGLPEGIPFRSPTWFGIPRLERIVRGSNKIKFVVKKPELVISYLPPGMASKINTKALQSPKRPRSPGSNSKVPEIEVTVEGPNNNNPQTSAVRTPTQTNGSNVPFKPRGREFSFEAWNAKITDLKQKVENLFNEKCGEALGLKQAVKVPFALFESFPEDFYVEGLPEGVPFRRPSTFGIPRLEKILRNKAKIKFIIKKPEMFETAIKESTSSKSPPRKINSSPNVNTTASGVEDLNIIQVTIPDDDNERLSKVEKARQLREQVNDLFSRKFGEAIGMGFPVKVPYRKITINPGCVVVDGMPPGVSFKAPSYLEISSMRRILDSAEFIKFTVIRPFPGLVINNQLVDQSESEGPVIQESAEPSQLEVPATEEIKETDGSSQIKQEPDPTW

For `O=C1c2ccccc2OCC1c1ccc(F)cc1` (racemic) [KBU2046, (±)-3(4-fluorophenyl)chroman-4-one], the “inhibition of kinase binding to immobilized substrate” value (442 kinases) was “completely negative”, the clearance ([1]; CD1(ICR), mouse, plasma, combined fit of both doses by both routes, read-out: Clearance, Elimination CLE) was 1.53 mL/min and the clearance ([1]; CD1(ICR), mouse, plasma, combined fit of both doses by both routes, read-out: Clearance, Fast CLF) was 0.61 mL/min. The clearance ([1]; CD1(ICR), mouse, plasma, combined fit of both doses by both routes, read-out: Clearance, Slow CLS) was 0.11 mL/min, the Vd ([1]; CD1(ICR), mouse, plasma, combined fit of both doses by both routes, read-out: Distribution volume, Total VSS) was 0.0636 L and the half-life ([1]; CD1(ICR), mouse, plasma, combined fit of both doses by both routes, read-out: Elim Half-life (converted)) was 2.27 h. It also gave a bioavailability ([1]; CD1(ICR), mouse, plasma, 25 mg/kg by oral gavage) of 4.6%, a bioavailability ([1]; CD1(ICR), mouse, plasma, 100 mg/kg by oral gavage) of 10.1% and an Absorption delay [1, 4] of 32.3 min. The “Distribution volume, Central VC” value [1, 4] was 19.3 mL, the “Distribution volume, Fast VF” value [1, 4] was 20.4 mL and the “Distribution volume, Slow VS” value [1, 4] was 23.9 mL. For the same compound, the “time plasma concentrations maintained >24 nM” value ([1]; single oral dose) was 9.3 h, the concentration at 35 days ([2]; 150 mg/kg, mice whose metastasis were suppressed by 92%, read-out: plasma concentration) was 24 nM and the concentration at 35 days ([2]; athymic mice, KBU2046 in chow, doses that decreased metastasis, read-out: plasma concentrations) was 1.1 to 24 nM. The “% inhibition by competitor” value ([3]; 0.5 uM KBU2046-biotin) was 64% and the “% inhibition by competitor” value ([3]; 10 uM KBU2046-biotin) was 43%.
